# Results reported in patent publication US20220096509A1, “Reformulating Hospital Gentamicin to reduce the risk of hearing loss while maintaining antimicrobial activity” (priority 2019, published 2022).
# Several values for one entry are separate records, joined by “and”; a condition that tells them apart may be missing. Identical values can stand only once. Entries after “also recorded” stand apart in the source; their conditions may differ. Like-named read-outs stand apart in the source and are kept apart here.
# What was measured:
# [1] = system: S. aureus, E. coli, K. pneumoniae, P. aeruginosa strains; experiment: Antimicrobial breadth and potency (MIC) across 40 bacterial strains; assay type: cell-based
# Source text: (§1) The colors represent different species, the numbers in the columns refer to the number of individual strains inhibited, where black=S. aureus, grey=E. coli, blue=K. pneumoniae, white=P. aeruginosa. […] (2B) The MIC values for each strain (diamond symbols) split by species, where Hospital=red, C1=orange, blue=C1a, cyan=C2, green=C2a, purple=C2b (grey scale only). Filled symbols indicate strains with antimicrobial resistance. The box indicates the 25-75 percentiles, stars indicate geometric means, *=P<0.05, **=P<0.01 tested using Mann Whitney U Non-Parametric analysis. […] (2C) The antimicrobial breadths of the impurities relative to a hospital bottle. […] (2D) The MIC values for each strain split by species.
# (§2) The antimicrobial activity of the main components of gentamicin were studied relative to a single hospital bottle (gentamicin mixture) from Stanford University Hospital.
# [2] = system: P. aeruginosa; experiment: MIC against P. aeruginosa strains; assay type: cell-based
# Source text: as §1, §2
# [3] = system: rat cochlear hair cells; details: for EC50: read-out: EC50±SE, hair cell survival (ototoxicity)
# [4] = system: S. aureus; assay type: cell-based; details: for antimicrobial potency relative to hospital bottle: Mann Whitney U Test
# Source text: as §1, §2
# [5] = system: rat cochlear hair cells; experiment: tissue or blood; details: read-out: EC50±SE, hair cell survival (ototoxicity)
# [6] = system: K. pneumoniae; experiment: MIC against K. pneumoniae strains; assay type: cell-based; details: Mann Whitney U Test
# Source text: (§3) […]. The colors represent different species, the numbers in the columns refer to the number of individual strains inhibited, where black=S. aureus, grey=E. coli, blue=K. pneumoniae, white=P. aeruginosa. The hospital bottle inhibits 35/40 strains tested, with the C-components inhibiting 31-35 strains. (2B) The MIC values for each strain (diamond symbols) split by species, where Hospital=red, C1=orange, blue=C1a, cyan=C2, green=C2a, purple=C2b (grey scale only). Filled symbols indicate strains with antimicrobial resistance. The box indicates the 25-75 percentiles, stars indicate geometric means, *=P<0.05, **=P<0.01 tested using Mann Whitney U Non-Parametric analysis. […] There are also some differences between individual components in S. aureus and P. aeruginosa. (2C) The antimicrobial breadths of the impurities relative to a hospital bottle. The hospital bottle inhibits 35/40 strains tested, with the impurities Gent B, Gent A, Gent X and G418 inhibiting 15-21 strains. One impurity, Sisomicin inhibited 35/40 strains. (2D) The MIC values for each strain split by species. […].
# [7] = system: E. coli; experiment: MIC against E. coli strains; assay type: cell-based; details: Mann Whitney U Test
# Source text: as §3
# [8] = mid-apical region of the cochlea, n>5 per data point, logarithmic function best fit
compound,measurement,setting,value
"CN[C@@H]1[C@@H](O)[C@@H](O[C@@H]2[C@@H](O)[C@H](O[C@H]3O[C@H]([C@@H](C)NC)CC[C@H]3N)[C@@H](N)C[C@H]2N)OC[C@]1(C)O [C1, gentamicin C1]",antimicrobial potency among the components,[1],lowest antimicrobial potency
same,Geomean MIC,"[2]; P. aeruginosa, n≥8 strains",1.52 µg/mL
same,ototoxicity relative to hospital bottle,[3],not significantly different from the hospital bottle
same,EC50,[3]; [8],755 ± 60 µM
same,antimicrobial potency relative to hospital bottle,[4]; S. aureus,less potent than the hospital bottle; also recorded: less antimicrobial than the hospital bottle
same,Geomean MIC,"[4]; S. aureus, n=10 strains",0.53 µg/mL and 0.54 µg/mL
"CN[C@@H]1[C@@H](O)[C@@H](O[C@@H]2[C@@H](O)[C@H](O[C@H]3O[C@H]([C@@H](C)N)CC[C@H]3N)[C@@H](N)C[C@H]2N)OC[C@]1(C)O [C2, gentamicin C2]",ototoxicity among the drug components,[3],most ototoxic component
same,EC50,[3]; [8],402 ± 38 µM
"CN[C@@H]1[C@@H](O)[C@@H](O[C@@H]2[C@@H](O)[C@H](O[C@H]3O[C@H]([C@H](C)N)CC[C@H]3N)[C@@H](N)C[C@H]2N)OC[C@]1(C)O [C2a, gentamicin C2a]",ototoxicity relative to hospital bottle,[3],not significantly different from the hospital bottle
same,EC50,[3]; [8],614 ± 69 µM
"CNC[C@@H]1CC[C@@H](N)[C@@H](O[C@H]2[C@H](O)[C@@H](O[C@H]3OC[C@](C)(O)[C@H](NC)[C@H]3O)[C@H](N)C[C@@H]2N)O1 [C2b, gentamicin C2b]",ototoxicity relative to hospital bottle,[3],less ototoxic than the hospital bottle
same,EC50,[3]; [8],1200 ± 114 µM
"CN[C@@H]1[C@@H](O)[C@@H](O[C@@H]2[C@@H](O)[C@H](O[C@H]3O[C@H]([C@@H](C)O)[C@@H](O)[C@H](O)[C@H]3N)[C@@H](N)C[C@H]2N)OC[C@]1(C)O [G418, geneticin, reference compound]",ototoxicity relative to hospital bottle,[3],more ototoxic at lower doses than the hospital but requires a higher dose to kill all hair cells than the hospital
CN[C@@H]1[C@@H](O)[C@@H](O[C@@H]2[C@@H](O)[C@H](O[C@H]3O[C@H](CN)[C@@H](O)[C@H](O)[C@H]3O)[C@@H](N)C[C@H]2N)OC[C@]1(C)O [Gent B],antimicrobial potency relative to hospital bottle,"[1]; all species tested, P<0.05, n≥8 strains",significantly less potent than the hospital bottle
CN[C@@H]1[C@@H](O)[C@@H](O[C@@H]2[C@@H](O)[C@H](O[C@H]3OC(CN)=CC[C@H]3N)[C@@H](N)C[C@H]2N)OC[C@]1(C)O [Sisomicin],EC50,[5],212 ± 7 µM
same,number of strains inhibited (antimicrobial breadth),"[1]; 40 strains tested, breadth defined as MIC value ≤4μg/ml",35/40
same,antimicrobial potency relative to hospital bottle,"[2]; P. aeruginosa, Mann Whitney U Test",more potent than the hospital
same,ototoxicity relative to hospital bottle,[3],more ototoxic than the hospital
same,antimicrobial potency relative to hospital bottle,[4]; S. aureus,more potent than the hospital
same,antimicrobial potency relative to hospital bottle,[6],equi-potent to the hospital
same,antimicrobial potency relative to hospital bottle,[7],equi-potent to the hospital
gentamicin C1a,Geomean MIC,[2],0.71 µg/mL
same,antimicrobial potency relative to C1 component,[2],more antimicrobial than the C1 component
same,EC50,[3],816 ± 18 µM
same,Geomean MIC,[4],0.29 µg/mL
same,antimicrobial potency relative to C1 component,[4],more antimicrobial than the C1 component
